Patent publication US10894786B2, “Substituted pyrazole derivatives as selective CDK12/13 inhibitors” (Aurigene Discovery Technologies Limited, priority 2018, dated 2021)
Like-named read-outs stand apart in the source and are kept apart here.

Columns and labels:
CDK13 = CDK13 (Homo sapiens (Human), UniProt Q14004); test: Biochemical assay for CDK13, LanthaScreen Eu Kinase Binding Assay; settings: for IC50: kinase tracer 236 100 nM; for Ratio CDK7/CDK13: ratio of IC50
From the text: Binding of an inhibitor to the kinase competes for binding with the tracer, resulting in a loss of FRET signal.

CDK12 [1] = biological target: T1, CDK12 (Homo sapiens (Human), UniProt Q9NYV4); test: CDK12 plate based target engagement assay in Jurkat cells; format: cell-based; settings: for CDK12 Target Occupancy (Tocc50) μM in Jurkat cells: 6 hours
Description: Jurkat cells were treated with varying concentrations of the compound for 6 hours. The DMSO concentration was maintained at 0.1%. Cells were harvested and lysed. 200 μg of the lysate was incubated with 1 μM Bio-THZ531 in the presence of 1 mM DTT and incubated on a rocker at 4° C. overnight. 100 μL of this sample was added to pre-washed streptavidin coated plates and incubated at room temperature on a rocker for 2 hours. The plates were washed and incubated with CDK12 antibody for overnight at 4° C. Next day the plate was washed and incubated for 2 hours with HRP labelled anti rabbit secondary antibody. Bio-THZ531 bound CDK12 was determined using TMB substrate. […] Percentage CDK12 occupancy with the test compound was calculated over untreated control. Occupancy 50 was calculated by fitting the dose response data to sigmoidal curve fitting equation using GraphPad Prism software V5.

CDK12 [2] = biological target: T1, CDK12; test: Biochemical assay for CDK12 (IC50 determination), LANCE TR-FRET; settings: for IC50: ATP 100 μM, 60 min pre-incubation
Description: The inhibitory activity of the test compounds was assessed by the LANCE TR-FRET assay, which detects the ATP-dependent phosphorylation of an ULight-4E-BP1 (Thr37/Thr46) substrate peptide (100 nM) by CDK12 (30 nM). Briefly, the enzyme reaction was run in reaction buffer (25 mM HEPES (pH 7.5), 10 mM MgCl2, 0.01% BSA, 0.01% Triton x, 1 mM DTT). The assay was performed in 384-well plate format. The end concentration of the ATP substrate was 100 μM, and that of the ULight-4E-BP1 (Thr37/Thr46) substrate peptide was 100 nM, and of CDK12 was 30 nM. Pre-incubation of the compound and enzyme was performed for 60 min at room temperature. After 60 min incubation at room temperature, the reaction was terminated by the addition of 40 mM EDTA and 0.5 nM Eu-labeled anti-phospho-eIF4E-binding protein (Thr37/46) antibody in LANCE detection buffer. […] The readout was calculated as (acceptor counts/donor counts)×1000. The IC50 values were derived by fitting a sigmoidal dose-response curve to a plot of assay readout over inhibitor concentration.

CDK12 [3] = biological target: T1, CDK12; test: Biochemical assay for CDK12 (Kd determination), kinase-tagged phage/qPCR competition binding
Description: Kinase-tagged T7 phage strains were grown in parallel in 24-well blocks in an E. coli host derived from the BL21 strain. E. coli were grown to log-phase and infected with T7 phage from a frozen stock (multiplicity of infection=0.4) and incubated with shaking at 32° C. until lysis (90-150 minutes). The lysates were centrifuged (6,000×g) and filtered (0.2 μm) to remove cell debris. The remaining kinases were produced in HEK-293 cells and subsequently tagged with DNA for qPCR detection. […] The liganded beads were blocked with excess biotin and washed with blocking buffer (SeaBlock (Pierce), 1% BSA, 0.05% Tween 20, 1 mM DTT) to remove unbound ligand and to reduce non-specific phage binding. […] Test compounds were prepared as 40× stocks in 100% DMSO and directly diluted into the assay. All reactions were performed in polypropylene 384-well plates in a final volume of 0.02 ml. […] The kinase concentration in the eluates was measured by qPCR.
Target sequence in this assay (Q9NYV4 whole entry, species assumed): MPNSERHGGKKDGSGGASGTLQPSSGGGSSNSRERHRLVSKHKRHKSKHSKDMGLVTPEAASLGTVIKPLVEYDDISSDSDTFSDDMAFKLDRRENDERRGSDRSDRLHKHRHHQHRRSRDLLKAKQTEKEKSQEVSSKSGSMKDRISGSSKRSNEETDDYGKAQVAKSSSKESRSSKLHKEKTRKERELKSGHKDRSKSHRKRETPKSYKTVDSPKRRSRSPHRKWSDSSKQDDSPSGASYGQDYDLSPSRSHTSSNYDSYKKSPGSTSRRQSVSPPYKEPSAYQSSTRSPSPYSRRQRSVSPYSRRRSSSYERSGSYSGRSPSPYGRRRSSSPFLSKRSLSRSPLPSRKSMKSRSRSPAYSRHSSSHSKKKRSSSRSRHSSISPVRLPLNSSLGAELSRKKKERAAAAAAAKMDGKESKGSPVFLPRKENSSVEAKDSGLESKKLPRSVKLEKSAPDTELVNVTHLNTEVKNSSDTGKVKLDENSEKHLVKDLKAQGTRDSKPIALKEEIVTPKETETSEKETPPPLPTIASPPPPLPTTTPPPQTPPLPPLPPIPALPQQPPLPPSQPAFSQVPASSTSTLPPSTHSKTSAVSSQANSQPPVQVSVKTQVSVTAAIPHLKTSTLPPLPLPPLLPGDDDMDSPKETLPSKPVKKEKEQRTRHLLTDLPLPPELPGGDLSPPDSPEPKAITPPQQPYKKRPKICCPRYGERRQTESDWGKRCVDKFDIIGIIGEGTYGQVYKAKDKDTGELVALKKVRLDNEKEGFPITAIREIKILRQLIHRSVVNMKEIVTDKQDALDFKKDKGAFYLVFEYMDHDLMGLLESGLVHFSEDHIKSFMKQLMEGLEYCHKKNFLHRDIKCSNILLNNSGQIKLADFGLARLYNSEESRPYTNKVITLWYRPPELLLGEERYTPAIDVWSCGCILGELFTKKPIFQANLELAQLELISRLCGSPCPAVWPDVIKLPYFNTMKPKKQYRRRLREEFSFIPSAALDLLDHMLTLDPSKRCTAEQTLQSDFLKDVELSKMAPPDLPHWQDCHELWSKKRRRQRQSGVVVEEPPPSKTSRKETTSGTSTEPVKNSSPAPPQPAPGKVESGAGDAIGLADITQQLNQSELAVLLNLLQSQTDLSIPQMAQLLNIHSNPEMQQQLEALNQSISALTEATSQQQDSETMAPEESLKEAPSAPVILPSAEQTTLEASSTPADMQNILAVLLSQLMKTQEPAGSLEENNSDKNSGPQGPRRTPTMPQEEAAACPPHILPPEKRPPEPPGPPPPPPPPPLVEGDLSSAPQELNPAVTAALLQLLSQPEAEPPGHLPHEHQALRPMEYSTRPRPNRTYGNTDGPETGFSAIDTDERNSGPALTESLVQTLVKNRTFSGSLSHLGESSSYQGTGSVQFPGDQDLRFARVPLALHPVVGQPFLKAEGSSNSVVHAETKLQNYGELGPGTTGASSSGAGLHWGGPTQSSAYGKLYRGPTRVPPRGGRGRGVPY

CDK7 [4] = biological target: T2, CDK7 (Homo sapiens (Human), UniProt P50613); test: Biochemical assay for CDK7, LANCE TR-FRET; settings: read-out: CDK 7 IC50
Description: The inhibitory activity of the test compounds was assessed by the LANCE TR-FRET assay, which detects the ATP-dependent phosphorylation of an ULight-myelin basic protein (MBP) substrate peptide (100 nM) by CDK7 (10 nM). Briefly, the enzyme reaction was run in reaction buffer (20 mM HEPES (pH 7.5), 10 mM MgCl2, 0.01% Triton x, 100 μM Sodium Orthovanadate, 1 mM DTT). The assay was performed in 384-well plate. The end concentration of the ATP substrate was 1 mM/100 μM, and that of the ULight-MBP substrate peptide was 100 nM, and of CDK7 was 10 nM. Pre-incubation of the compound and enzyme was performed for 60 min at room temperature. After 60 min incubation at room temperature, the reaction was terminated by the addition of 40 mM EDTA and 1 nM Eu-labeled anti-phospho-MBP-binding protein antibody in the buffer. […] The readout was calculated as (acceptor counts/donor counts)×1000. The IC50 values were derived by fitting a sigmoidal dose-response curve to a plot of assay readout over inhibitor concentration.
Target sequence in this assay (P50613 whole entry, looked up, species assumed): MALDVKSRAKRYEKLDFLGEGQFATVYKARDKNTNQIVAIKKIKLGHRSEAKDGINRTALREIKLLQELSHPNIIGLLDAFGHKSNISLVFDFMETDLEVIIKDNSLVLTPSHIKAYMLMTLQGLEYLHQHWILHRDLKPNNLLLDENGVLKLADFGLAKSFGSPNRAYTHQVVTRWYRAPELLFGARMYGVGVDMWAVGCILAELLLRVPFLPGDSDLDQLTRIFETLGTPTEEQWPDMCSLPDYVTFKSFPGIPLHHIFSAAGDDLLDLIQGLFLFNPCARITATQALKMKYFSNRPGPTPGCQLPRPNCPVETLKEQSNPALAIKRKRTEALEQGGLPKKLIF
Target sequence in this assay (P51946 whole entry partner, looked up, species assumed): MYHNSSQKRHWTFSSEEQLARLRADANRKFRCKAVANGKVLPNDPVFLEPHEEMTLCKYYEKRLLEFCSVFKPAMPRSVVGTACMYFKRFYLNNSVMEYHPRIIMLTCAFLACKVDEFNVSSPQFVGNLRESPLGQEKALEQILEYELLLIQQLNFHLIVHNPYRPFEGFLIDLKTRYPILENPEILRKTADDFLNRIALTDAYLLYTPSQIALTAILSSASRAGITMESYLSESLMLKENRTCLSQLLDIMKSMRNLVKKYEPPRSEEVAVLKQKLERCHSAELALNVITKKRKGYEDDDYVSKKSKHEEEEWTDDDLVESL
Target sequence in this assay (P51948 whole entry partner, looked up, species assumed): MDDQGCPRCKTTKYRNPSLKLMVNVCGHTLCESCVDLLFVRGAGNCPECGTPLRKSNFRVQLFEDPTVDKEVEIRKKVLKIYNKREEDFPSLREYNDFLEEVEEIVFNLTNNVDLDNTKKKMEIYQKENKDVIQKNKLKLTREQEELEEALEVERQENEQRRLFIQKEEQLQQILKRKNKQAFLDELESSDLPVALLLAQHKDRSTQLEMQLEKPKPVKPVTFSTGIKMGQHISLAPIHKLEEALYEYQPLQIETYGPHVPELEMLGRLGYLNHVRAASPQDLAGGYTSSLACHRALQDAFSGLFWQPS

CDK7 [5] = biological target: T2, CDK7; test: CDK7 target occupancy in Jurkat cells; format: cell-based
[6] = ATP 1 mM/100 μM, 60 min pre-incubation

Sequence of CDK13 (Q14004 whole entry, looked up, species assumed): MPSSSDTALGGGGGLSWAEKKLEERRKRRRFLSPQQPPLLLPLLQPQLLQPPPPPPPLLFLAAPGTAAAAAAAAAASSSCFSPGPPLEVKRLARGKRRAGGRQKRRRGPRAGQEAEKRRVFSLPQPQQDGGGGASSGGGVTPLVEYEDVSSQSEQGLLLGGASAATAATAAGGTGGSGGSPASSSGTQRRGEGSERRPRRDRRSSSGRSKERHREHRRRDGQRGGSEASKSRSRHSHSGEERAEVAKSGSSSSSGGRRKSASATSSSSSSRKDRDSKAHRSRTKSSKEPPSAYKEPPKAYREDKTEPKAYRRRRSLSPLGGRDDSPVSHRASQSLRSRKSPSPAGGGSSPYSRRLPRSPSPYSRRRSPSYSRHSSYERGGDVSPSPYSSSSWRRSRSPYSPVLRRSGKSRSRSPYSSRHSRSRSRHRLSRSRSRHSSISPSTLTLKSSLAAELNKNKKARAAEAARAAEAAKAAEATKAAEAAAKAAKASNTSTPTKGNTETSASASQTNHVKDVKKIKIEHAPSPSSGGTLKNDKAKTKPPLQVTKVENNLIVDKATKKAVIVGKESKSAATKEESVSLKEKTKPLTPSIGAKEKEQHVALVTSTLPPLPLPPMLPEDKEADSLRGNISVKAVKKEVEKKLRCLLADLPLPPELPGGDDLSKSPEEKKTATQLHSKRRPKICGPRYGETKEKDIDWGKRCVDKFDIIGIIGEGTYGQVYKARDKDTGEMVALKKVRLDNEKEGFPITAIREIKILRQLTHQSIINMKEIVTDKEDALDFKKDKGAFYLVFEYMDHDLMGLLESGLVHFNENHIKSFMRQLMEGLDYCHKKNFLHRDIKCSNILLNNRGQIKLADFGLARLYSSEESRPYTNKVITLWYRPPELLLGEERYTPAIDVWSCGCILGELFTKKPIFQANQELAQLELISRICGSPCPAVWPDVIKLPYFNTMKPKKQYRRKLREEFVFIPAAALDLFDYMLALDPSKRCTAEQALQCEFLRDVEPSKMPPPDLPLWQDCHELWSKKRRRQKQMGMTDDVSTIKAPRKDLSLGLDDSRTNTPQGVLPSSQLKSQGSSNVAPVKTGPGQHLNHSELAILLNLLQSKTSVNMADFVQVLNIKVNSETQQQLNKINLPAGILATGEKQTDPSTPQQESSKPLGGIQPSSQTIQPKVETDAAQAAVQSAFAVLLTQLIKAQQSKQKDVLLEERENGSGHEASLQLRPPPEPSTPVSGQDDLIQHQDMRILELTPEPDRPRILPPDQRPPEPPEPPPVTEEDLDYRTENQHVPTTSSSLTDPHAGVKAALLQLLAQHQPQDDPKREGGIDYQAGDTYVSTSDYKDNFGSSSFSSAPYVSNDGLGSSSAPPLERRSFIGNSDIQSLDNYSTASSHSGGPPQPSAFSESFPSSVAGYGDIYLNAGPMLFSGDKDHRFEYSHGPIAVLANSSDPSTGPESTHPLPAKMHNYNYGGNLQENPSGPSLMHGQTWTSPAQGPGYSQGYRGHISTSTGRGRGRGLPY
Sequence of CDK13 (O75909 whole entry partner, looked up, species assumed): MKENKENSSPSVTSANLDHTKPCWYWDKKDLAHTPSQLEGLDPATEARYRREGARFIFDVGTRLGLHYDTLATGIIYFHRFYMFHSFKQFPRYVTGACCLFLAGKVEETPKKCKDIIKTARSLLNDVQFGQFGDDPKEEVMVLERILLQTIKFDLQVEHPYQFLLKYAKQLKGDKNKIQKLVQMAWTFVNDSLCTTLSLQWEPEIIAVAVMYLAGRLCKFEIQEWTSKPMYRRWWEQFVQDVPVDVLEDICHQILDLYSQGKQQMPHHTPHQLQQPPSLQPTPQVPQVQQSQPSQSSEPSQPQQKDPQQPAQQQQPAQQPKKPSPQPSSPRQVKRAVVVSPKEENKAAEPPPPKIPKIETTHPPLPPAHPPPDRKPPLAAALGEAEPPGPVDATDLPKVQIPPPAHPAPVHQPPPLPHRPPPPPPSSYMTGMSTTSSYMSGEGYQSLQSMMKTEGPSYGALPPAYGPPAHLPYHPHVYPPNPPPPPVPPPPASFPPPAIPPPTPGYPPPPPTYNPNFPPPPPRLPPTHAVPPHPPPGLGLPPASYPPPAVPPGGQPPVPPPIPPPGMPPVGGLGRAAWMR

SMILES | IC50 (CDK13) | CDK12 Target Occupancy (Tocc50) μM in Jurkat cells (CDK12 [1]; Jurkat cells) | IC50 (CDK12 [2]) | Kd (CDK12 [3]) | Ratio CDK7/CDK13 (CDK13) | IC50 (CDK7 [4]) | Ratio CDK7/CDK12 (CDK12 [2]) | IC50 (CDK7 [4]; [6]) | Ratio CDK7/CDK12 (CDK12 [1]) | Jurkat Cells, CDK12 Target Occ50 (CDK12 [1]; Jurkat cells) | binding affinity towards CDK12 in comparison to CDK7 (CDK12 [1]; Jurkat cells target occupancy) | Jurkat Cells, CDK7 Target Occ50 (CDK7 [5])
C=CC(=O)N1CCC=C(c2ccc([C@H](C)C(=O)Nc3cc(C4CC4)[nH]n3)cc2)C1 [Compound 34, (S)-2-(4-(1-acryloyl-1,2,5,6-tetrahydropyridin-3-yl)phenyl)-N-(5-cyclopropyl-1H-pyrazol-3-yl)propanamide] | 0.0043 µM | 0.050 µM | 0.189 µM | < 0.025 µM | – | – | – | – | – | – | – | –
C=CC(=O)N1CCC=C(c2ccc(C(C)C(=O)Nc3cc(C4CC4)[nH]n3)cn2)C1 (single isomer, unassigned) [Compound 37, 2-(1′-acryloyl-1′,2′,5′,6′-tetrahydro-[2,3′-bipyridin]-5-yl)-N-(5-cyclopropyl-1H-pyrazol-3-yl)propanamide] | 0.003 µM | 0.012 µM | 0.029 µM | < 0.025 µM | – | – | – | – | – | – | – | –
C=CC(=O)N1CCN(c2ccc(C(C)C(=O)Nc3cc(C4CC4)[nH]n3)cc2)CC1 (centres unmarked) [Compound 17, 2-(4-(4-acryloylpiperazin-1-yl)phenyl)-N-(5-cyclopropyl-1H-pyrazol-3-yl)propanamide] | 0.081 µM | 0.030 µM | 0.59 µM | > 0.1 µM | 98.27 | 7.96 µM | 13.49 | – | – | – | – | –
C=CC(=O)N1CC=C(c2ccc(C(C)C(=O)Nc3cc(C4CC4)[nH]n3)cn2)CC1 (single isomer, unassigned) [Compound 6, 2-(1′-acryloyl-1′,2′,3′,6′-tetrahydro-[2,4′-bipyridin]-5-yl)-N-(5-cyclopropyl-1H-pyrazol-3-yl)propanamide] | 0.006 µM | 0.012 µM | 0.04 µM | < 0.025 µM | 216.66 | – | 32.5 | 1.3 µM | – | – | – | –
C[C@H](C(=O)Nc1cc(C2CC2)[nH]n1)c1ccc(C2=CCN(C(=O)/C=C/CN(C)C)CC2)cc1 [Compound 15, (S,E)-N-(5-cyclopropyl-1H-pyrazol-3-yl)-2-(4-(1-(4-(dimethylamino)but-2-enoyl)-1,2,3,6-tetrahydropyridin-4-yl)phenyl)propanamide] | 0.0188 µM | 0.204 µM | 0.235 µM | – | 33.03 | – | 2.64 | 0.621 µM | 8.175 | 204.4 nM | > 8 fold | 1671 nM
C=CC(=O)N1CCC(c2ccc([C@H](C)C(=O)Nc3cc(C4CC4)[nH]n3)cc2)CC1 [Compound 12, (S)-2-(4-(1-acryloylpiperidin-4-yl)phenyl)-N-(5-cyclopropyl-1H-pyrazol-3-yl)propanamide] | 0.007 µM | 0.080 µM | 0.151 µM | – | 404.28 | – | 18.74 | 2.83 µM | – | – | – | –
C=CC(=O)N1CC=C(c2ccc(C(C)C(=O)Nc3cc(C4CC4)[nH]n3)cc2F)CC1 (centres unmarked) [Compound 44, 2-(4-(1-acryloyl-1,2,3,6-tetrahydropyridin-4-yl)-3-fluorophenyl)-N-(5-cyclopropyl-1H-pyrazol-3-yl)propanamide] | 0.0058 µM | 0.009 µM | 0.009 µM | – | 151.72 | – | 97.77 | 0.88 µM | – | – | – | –
